Results: patent US20170312260A1 (LAUNX BIOMEDICAL CO., LTD., priority 2014, published 2017)
Where two headings read alike, the source gives them in different places.

Experiments:
Format in all cases: cell-based
[1] = test system: MKN-45 (Gastric Adenocarcinoma); assay: WST-1 cell viability analysis, MKN-45; details: Homo sapiens, MKN-45, 10 μM, 72 hours, read-out: viability (survival rate) of MKN-45 cells
Description: (§1) The cell numbers were counted and reseed as 2×10^6 in cell culture plate/flask. Then, the culture medium were added to a volume of 10 ml, and the cells were cultured for 2-3 days. Then, the cells were suspended for loading into 96-well plates. The number of cells was 3000 and the volume of the culture medium was 100 μl each well.
(§2) Removing the original culture medium from 96-well plate. Then add 100 μl of commercially drug at a concentration of 10 μM per well. After 72 hours, add the diluted WST-1 reagent to the well with 100 μl/well, and the diluted WST-1 reagent was acquired from the dilution of 9:1 medium and WST-1 stock reagent. Finally, the total volume of each well was 200 μl/well. Culture the 96-well plate at 37° C. for 30 to 90 minutes. Detecting and calculate the survival rate of each cancer cells with an ELISA reader at OD450 nm.

[2] = test system: pancreatic cancer cell line BxPC-3; assay: WST-1 cell viability analysis, BxPC-3; details: Homo sapiens, BXPC-3, 10 μM, 72 hours, read-out: viability (survival rate) of BxPC-3 cells
Description: as §1, §2

[3] = test system: breast cancer cell line MDA-MB-231; assay: WST-1 cell viability analysis, MDA-MB-231; details: Homo sapiens
[4] = test system: ovarian cancer cell line NIH-OVCAR-3; assay: WST-1 cell viability analysis, NIH-OVCAR-3; details: Homo sapiens, OVCAR-3, 10 μM, 72 hours, read-out: viability (survival rate) of NIH-OVCAR-3 cells
[5] = test system: breast cancer cell line MCF7; assay: WST-1 cell viability analysis, MCF7; details: Homo sapiens, MCF7, 10 μM, 72 hours, read-out: viability (survival rate) of MCF7 cells
Description: as §1, §2

[6] = test system: BCC (basal cell carcinoma); assay: WST-1 cell viability analysis, BCC; details: 72 hours, read-out: viability (survival rate) of BCC cells
[7] = test system: LoVo(Colorectal Adenocarcinoma); assay: WST-1 cell viability analysis, LoVo; details: Homo sapiens
Description: as §1, §2

[8] = test system: HepG2 (hepatocellular carcinoma); assay: WST-1 cell viability analysis, HepG2; details: Homo sapiens, HepG2, 10 μM, 72 hours, read-out: viability (survival rate) of HepG2 cells
[9] = test system: HeLa (Cervix Adenocarcinoma); assay: WST-1 cell viability analysis, HeLa; details: Homo sapiens
Description: as §1, §2

[10] = test system: osteosarcoma cell line U2OS; assay: WST-1 cell viability analysis, U2OS; details: Homo sapiens
Description: as §1, §2

Question: With CC1=C(C(=O)OC(C)C)C(c2cccc([N+](=O)[O-])c2)C(C(=O)OC2CN(C(c3ccccc3)c3ccccc3)C2)=C(N)N1 (stereo not shown) [Azelnidipine] as the molecule, how does the viability at 10 µM ([1]; run 0510-10 min) read?
Answer: Its viability at 10 µM is 174%.

Question: What about the viability at 10 µM ([1]; run 0512-10 min) of the same molecule?
Answer: Its viability at 10 µM is 184%.

Question: What about the viability at 10 µM ([1]; run 0515-10 min) of the same molecule?
Answer: Its viability at 10 µM is 68.5%.

Question: What about the viability at 10 µM ([1]; run 0517-10 min) of the same molecule?
Answer: Its viability at 10 µM is 130%.

Question: And the viability at 10 µM ([2]; run 3-4-30 min)?
Answer: Its viability at 10 µM is 77.5%.

Question: What about the viability at 10 µM ([2]; run 3-7-3-30 min) of the same molecule?
Answer: The viability at 10 µM was 79.9%.

Question: And the viability at 10 µM ([2]; run 3-7-4-30 min)?
Answer: The viability at 10 µM was 51%.

Question: What about the viability at 10 µM ([2]; run 3-7-7-30 min) of the same molecule?
Answer: Its viability at 10 µM is 50%.

Question: What about the viability at 10 µM ([3]; MDA-MB-231, 10 μM, 72 hours, run 0612-10 min, read-out: viability (survival rate) of MDA-MB-231 cells) of the same molecule?
Answer: The viability at 10 µM was 70.3%.

Question: What about the viability at 10 µM ([3]; MDA-MB-231, 10 μM, 72 hours, run 0614-10 min, read-out: viability (survival rate) of MDA-MB-231 cells) of the same molecule?
Answer: Its viability at 10 µM is 89.7%.

Question: And the viability at 10 µM ([3]; MDA-MB-231, 72 h, 10 μM, average of the 3 printed tests, read-out: average viability of MDA-MB-231 cells)?
Answer: Its viability at 10 µM is 86.9%.

Question: And the viability at 10 µM ([4]; run 7-3-30 min)?
Answer: The viability at 10 µM was 106%.

Question: And the viability at 10 µM ([4]; run 7-4-30 min (fourth column))?
Answer: The viability at 10 µM was 104%.

Question: And the viability at 10 µM ([4]; run 7-4-30 min (second column))?
Answer: Its viability at 10 µM is 99.1%.

Question: And the viability at 10 µM ([5]; run 0612-10 min)?
Answer: Its viability at 10 µM is 48.6%.

Question: And the viability at 10 µM ([5]; run 0614-10 min)?
Answer: Its viability at 10 µM is 46.6%.

Question: And the viability at 10 µM ([5]; run 0616-10 min)?
Answer: The viability at 10 µM was 68.2%.

Question: What about the viability at 10 µM ([5]; run 0619-10 min) of the same molecule?
Answer: The viability at 10 µM was 79.9%.

Question: What about the viability at 10 µM ([6]; run 0602-30 min) of the same molecule?
Answer: The viability at 10 µM was 77.7%.

Question: What about the viability at 10 µM ([6]; run 0605-10 min) of the same molecule?
Answer: The viability at 10 µM was 127%.

Question: And the viability at 10 µM ([6]; run 0607-10 min)?
Answer: Its viability at 10 µM is 95.7%.

Question: What about the viability at 10 µM ([7]; 72 h, average of 4 tests, read-out: Average viability of LoVo cells) of the same molecule?
Answer: Its viability at 10 µM is 59.9%.

Question: And the viability at 10 µM ([7]; 72 hours, run 0616-10 min, read-out: viability (survival rate) of LoVo cells)?
Answer: The viability at 10 µM was 49.6%.

Question: What about the viability at 10 µM ([7]; 72 hours, run 0619-10 min, read-out: viability (survival rate) of LoVo cells) of the same molecule?
Answer: Its viability at 10 µM is 67.2%.

Question: What about the viability at 10 µM ([7]; 72 hours, run 0621-10 min, read-out: viability (survival rate) of LoVo cells) of the same molecule?
Answer: Its viability at 10 µM is 62.3%.

Question: And the viability at 10 µM ([7]; 72 hours, run 0623-10 min, read-out: viability (survival rate) of LoVo cells)?
Answer: The viability at 10 µM was 60.3%.

Question: And the viability at 10 µM ([8]; run 0524-20 min)?
Answer: The viability at 10 µM was 110%.

Question: What about the viability at 10 µM ([8]; run 0526-20 min) of the same molecule?
Answer: Its viability at 10 µM is 87.2%.

Question: And the viability at 10 µM ([8]; run 0529-20 min)?
Answer: Its viability at 10 µM is 112%.

Question: And the viability at 10 µM ([8]; run 0531-20 min)?
Answer: The viability at 10 µM was 93.7%.

Question: What about the viability at 10 µM ([9]; 72 h, average of 4 tests, read-out: Average viability of HeLa cells) of the same molecule?
Answer: Its viability at 10 µM is 87%.

Question: What about the viability at 10 µM ([9]; 72 hours, run 0524-10 min, read-out: viability (survival rate) of HeLa cells) of the same molecule?
Answer: The viability at 10 µM was 70.4%.

Question: What about the viability at 10 µM ([9]; 72 hours, run 0526-10 min, read-out: viability (survival rate) of HeLa cells) of the same molecule?
Answer: Its viability at 10 µM is 93.7%.

Question: What about the viability at 10 µM ([9]; 72 hours, run 0529-10 min, read-out: viability (survival rate) of HeLa cells) of the same molecule?
Answer: The viability at 10 µM was 81.4%.

Question: And the viability at 10 µM ([9]; 72 hours, run 0531-10 min, read-out: viability (survival rate) of HeLa cells)?
Answer: Its viability at 10 µM is 103%.

Question: And the viability at 10 µM ([10]; 72 h, summary (U2OS), read-out: Inhibitory effect, osteosarcoma)?
Answer: The viability at 10 µM was 69.4%.

Question: What about the viability at 10 µM ([10]; 72 hours, run 6-26-10 min, read-out: viability (survival rate) of U2OS cells) of the same molecule?
Answer: The viability at 10 µM was 53.3%.

Question: What about the viability at 10 µM ([10]; 72 hours, run 6-28-10 min, read-out: viability (survival rate) of U2OS cells) of the same molecule?
Answer: The viability at 10 µM was 78.3%.

Question: And the viability at 10 µM ([10]; 72 hours, run 6-30-10 min, read-out: viability (survival rate) of U2OS cells)?
Answer: The viability at 10 µM was 84.8%.

Question: And the viability at 10 µM ([10]; 72 hours, run 7-3-10 min, read-out: viability (survival rate) of U2OS cells)?
Answer: The viability at 10 µM was 61.2%.
